# Biological target: B-Raf (V600E)-kinase (Homo sapiens, UniProt P15056, V600E)
# Assay: Kinase test B-Raf (V600E)
# Format: biochemical
# Settings: compound concentration 2 μM; 100% = no inhibition, 0% = total inhibition; read-out: % CTL (residual activity of the enzyme relative to DMSO control)
# Protocol: In a dilution series 10 μL of test substance solution are placed in a multiwell plate. The dilution series is selected so that generally a range of concentrations of 2 μM to 0.119 nM or 0.017 nM is covered. If necessary the initial concentration of 2 μM is changed to 50 μM, 10 μM or 0.4 μM or 0.2857 μM and further dilution is carried out accordingly. The final concentration of DMSO is 5%. 10 μL of the B-Raf (V600E)-kinase solution are pipetted in (containing 0.5 ng B-Raf (V600E)-kinase in 20 mM Tris-HCl pH 7.5, 0.1 mM EDTA, 0.1 mM EGTA, 0.286 mM sodium orthovanadate, 10% glycerol, 1 mg/mL bovine serum albumin, 1 mM dithiothreitol) and the mixture is incubated for 1 h at RT under with shaking The kinase reaction is started by the addition of 20 μL ATP solution [final concentration: 250 μM ATP, 30 mM Tris-HCl pH 7.5, 0.02% Brij, 0.2 mM sodium orthovanadate, 10 mM magnesium acetate, 0.1 mM EGTA, phosphatase cocktail (Sigma, # P2850, dilution recommended by the manufacturer), 0.1 mM EGTA] and 10 μL MEK1 solution [containing 50 ng biotinylated MEK1 (prepared from purified MEK1 according to standard procedure, e.g. with EZ-Link Sulpho-NHS-LC-Biotin reagent, Pierce, # 21335) and carried out for 60 min at RT with constant shaking. The reaction is stopped by the addition of 12 μL of a 100 mM EDTA solution and incubation is continued for a further 5 min. 55 μL of the reaction solution are transferred into a streptavidin-coated plate (e.g. Streptawell HighBond, Roche, #11989685001) and shaken gently for 1 h at RT, in order to bind biotinylated MEK1 to the plate. After elimination of the liquid the plate is washed five times with 200 μL of 1×PBS and 100 μL solution of primary antibody plus europium-labelled secondary antibody [Anti Phospho-MEK (Ser217/221), Cell Signaling, # 9121 and Eu-N1 labeled goat-anti-rabbit antibody, Perkin Elmer, #AD0105], the primary antibody is diluted 1:2000 and the secondary antibody is diluted to 0.4-0.5 μg/mL in Delfia Assay Buffer (Perkin Elmer, #1244-111). After 1 h shaking at RT the solution is poured away and washed five times with 200 μL Delfia Wash Buffer (Perkin Elmer, #4010-0010/#1244-114). After the addition of 200 μL Enhancement Solution (Perkin Elmer, #4001-0010/#1244-105) the mixture is shaken for 10 min at RT and then measured in a Wallac Victor using the program “Delfia Time Resolved Fluorescence (Europium)”. IC50 values are obtained from these dosage-activity curves using a software program (GraphPadPrizm).
# A value of 100% indicates no inhibition while a value of 0% indicates total inhibition. The % CTL values denote the residual activity of the enzyme after the addition of the inhibitory compound in the solvent DMSO in relation to the enzyme activity in the solvent DMSO without the addition of a compound (control). The values were determined using the B-Raf(V600E)-kinase test described above.
# Chain of B-Raf (V600E)-kinase (P15056 whole entry V600E): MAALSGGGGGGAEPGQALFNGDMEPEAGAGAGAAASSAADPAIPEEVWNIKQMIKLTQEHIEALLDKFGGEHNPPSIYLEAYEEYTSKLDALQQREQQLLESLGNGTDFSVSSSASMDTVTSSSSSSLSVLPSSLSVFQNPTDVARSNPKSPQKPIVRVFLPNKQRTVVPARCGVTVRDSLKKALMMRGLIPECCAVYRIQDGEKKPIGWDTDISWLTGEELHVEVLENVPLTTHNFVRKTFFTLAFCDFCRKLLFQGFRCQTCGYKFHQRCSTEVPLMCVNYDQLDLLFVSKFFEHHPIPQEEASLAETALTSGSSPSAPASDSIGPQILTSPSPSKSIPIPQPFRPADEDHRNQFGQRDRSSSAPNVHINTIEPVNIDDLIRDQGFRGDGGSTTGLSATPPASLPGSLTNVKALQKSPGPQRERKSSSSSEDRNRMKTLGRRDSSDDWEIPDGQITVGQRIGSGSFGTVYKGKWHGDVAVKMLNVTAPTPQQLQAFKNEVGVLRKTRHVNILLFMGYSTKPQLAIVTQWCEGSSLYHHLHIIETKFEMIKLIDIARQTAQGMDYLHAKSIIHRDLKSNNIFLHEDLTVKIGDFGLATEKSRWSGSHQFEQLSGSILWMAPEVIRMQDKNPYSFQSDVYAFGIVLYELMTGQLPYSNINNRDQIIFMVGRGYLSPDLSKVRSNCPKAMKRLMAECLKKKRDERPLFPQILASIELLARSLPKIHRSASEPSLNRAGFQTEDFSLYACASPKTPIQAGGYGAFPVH
row,Compound,remaining activity at 2 µM [%]
1,Cc1ncc(C(=O)Nc2cc(C(C)(C)C)ncn2)cc1-n1cc(-c2cncc(N3CCN(C)CC3)c2)nn1 [Example I-177],1.9
2,Cc1ncc(C(=O)Nc2cc(C(C)(C)C)on2)cc1-n1cc(-c2cncc(N3CCN(CC4CC4)CC3)c2)nn1 [Example I-137],2.5
3,Cc1ncc(C(=O)Nc2cc(C(C)(C)C)on2)cc1-n1cc(-c2cncc(CN)c2)nn1 [Example I-194],2.1
4,Cc1ncc(C(=O)Nc2cc(C(F)(F)F)ccn2)cc1-n1cc(-c2cncs2)nn1 [Example I-81],1.2
5,COc1cncc(-c2cn(-c3cc(C(=O)Nc4cc(CN5CCCC5)cc(C(F)(F)F)c4)cnc3C)nn2)c1 [Example I-91],2.5
6,Cc1ncc(C(=O)Nc2cc(CNCC(C)C)c(Cl)c(C(F)(F)F)c2)cc1-n1cc(-c2cnn(C)c2C)nn1 [Example I-55],1.2
7,Cc1ncc(C(=O)Nc2cc(C(F)(F)F)cc(N(C)CCN(C)C)c2C)cc1-n1cc(-c2cnn(C)c2C)nn1 [Example I-119],1.8
8,Cc1ncc(C(=O)Nc2cc(CN(C)C)c(C)c(C(F)(F)F)c2)cc1-n1cc(-c2cnn(C)c2C)nn1 [Example I-93],3.5
9,Cc1ncc(C(=O)Nc2cc(C(C)(C)C)ncn2)cc1-n1cc(-c2cncc(N3CCN(C(C)C)CC3)c2)nn1 [Example I-155],2.6
10,CCNc1cc(NC(=O)c2cnc(C)c(-n3cc(-c4cnn(C)c4C)nn3)c2)cc(C(F)(F)F)c1 [Example I-75],7.3
11,Cc1ncc(C(=O)Nc2cc(C(C)(C)C)on2)cc1-n1cc(-c2cncc(N3CC[C@@H](N(C)C)C3)c2)nn1 [Example I-143],2.2
12,Cc1ncc(C(=O)Nc2cc(C(C)C)no2)cc1-n1cc(-c2cncc(N3CCN(C(C)C)CC3)c2)nn1 [Example I-154],2.9
13,Cc1ncc(C(=O)Nc2cc(C(C)(C)C)on2)cc1-n1cc(-c2cncc(N3CCN(CC4CCCCC4)CC3)c2)nn1 [Example I-173],2.4
14,CCN1CCN(c2cc(NC(=O)c3cnc(C)c(-n4cc(-c5cnn(C)c5C)nn4)c3)cc(C(F)(F)F)c2C)CC1 [Example I-57],2.3
15,Cc1ncc(C(=O)Nc2cc(OC(F)(F)F)cc(N3CCN(C)CC3)c2)cc1-n1cc(-c2cncs2)nn1 [Example I-51],4
16,Cc1ncc(C(=O)Nc2cc(C(C)(C)C)on2)cc1-n1cc(-c2cncc(N3CCN(CC(=O)N(C)C)CC3)c2)nn1 [Example I-176],6.7
17,Cc1ncc(C(=O)Nc2cc(N3CCN(C)CC3)cc(C(F)(F)F)c2)cc1-n1cc(-c2cnn(C)c2C)nn1 [Example I-3],8.7
18,COc1c(CO)cc(NC(=O)c2cnc(C)c(-n3cc(-c4cnn(C)c4C)nn3)c2)cc1C(F)(F)F [Example I-113],2.9
19,Cc1ncc(C(=O)Nc2cc(C(C)(C)C)on2)cc1-n1cc(-c2cncc(N3CCCOCC3)c2)nn1 [Example I-36],1.8
20,Cc1ncc(C(=O)Nc2cc(C(F)(F)F)ccn2)cc1-n1cc(-c2cncc(N3CCN(C(C)C)CC3)c2)nn1 [Example I-152],2.4
21,Cc1ncc(C(=O)Nc2nnc(C(C)(C)C)s2)cc1-n1cc(-c2cncc(N3CCN(C(C)C)CC3)c2)nn1 [Example I-153],1.8
22,Cc1ncc(C(=O)Nc2cc(C(C)(C)C)on2)cc1-n1cc(-c2cncc(CN(C)C)c2)nn1 [Example I-187],4.1
23,Cc1ncc(C(=O)Nc2cc(C(C)(C)C)on2)cc1-n1cc(-c2cncc(NC3CC(N4CCN(C)CC4)C3)c2)nn1 (stereo not shown) [Example I-196],1
24,Cc1ncc(C(=O)Nc2cc(N3CCN(C)CC3)c(F)c(C(F)(F)F)c2)cc1-n1cc(-c2cncs2)nn1 [Example I-128],5.3
25,Cc1ncc(C(=O)Nc2cc(C(C)(C)C)on2)cc1-n1cc(-c2cncc(N3CCCN(C)CC3)c2)nn1 [Example I-202],1.6
26,COCCN(C)Cc1cc(C(F)(F)F)cc(NC(=O)c2cnc(C)c(-n3cc(-c4cnn(C)c4C)nn3)c2)c1OC [Example I-112],2
27,Cc1ncc(C(=O)Nc2cc(N3CC[C@@H](N(C)C)C3)c(C)c(C(F)(F)F)c2)cc1-n1cc(-c2cnn(C)c2C)nn1 [Example I-65],7.1
28,CCN(C)Cc1cncc(-c2cn(-c3cc(C(=O)Nc4cc(C(C)(C)C)on4)cnc3C)nn2)c1 [Example I-191],3
29,Cc1ncc(C(=O)Nc2cc(C(C)(C)C)on2)cc1-n1cc(-c2cncc(N3CCN(CCC#N)CC3)c2)nn1 [Example I-175],8.1
30,COCCN1CCCN(c2cncc(-c3cn(-c4cc(C(=O)Nc5cc(C(C)(C)C)on5)cnc4C)nn3)c2)CC1 [Example I-201],1.6

# Further lines, results first:
row,remaining activity at 2 µM [%],Compound
1,1.8,Cc1ncc(NC(=O)c2cc(N3CCN(C)CC3)c(F)c(C(F)(F)F)c2)cc1-n1cc(-c2cnn(C)c2C)nn1 [XII-5]
2,1.8,Cc1ncc(NC(=O)c2cc(OC(F)(F)F)cc(C3=CCNCC3)c2)cc1-n1cc(-c2cnn(C)c2C)nn1 [XII-30]
3,2.3,Cc1ncc(NC(=O)c2cc(C(F)(F)F)ccn2)cc1-n1cc(-c2cncc(N3CCN(CC(C)C)CC3)c2)nn1 [XII-37]
4,1.6,Cc1ncc(NC(=O)c2cc(OC(F)(F)F)cc(N(C)CCN(C)C)c2)cc1-n1cc(-c2cnn(C)c2C)nn1 [XII-20]
5,4,Cc1ncc(NC(=O)c2cccc(OC(F)(F)F)c2)cc1-n1cc(-c2cncc(N3CCN(C(C)(C)C)CC3)c2)nn1 [XII-47]
6,2.2,Cc1ncc(NC(=O)c2cc(OC(F)(F)F)cc(N3CCN(C)CC3)c2)cc1-n1cc(-c2cncnc2)nn1 [XII-26]
7,10.8,CCOCCN1CCN(c2cncc(-c3cn(-c4cc(NC(=O)c5cccc(OC(F)(F)F)c5)cnc4C)nn3)c2)CC1 [XII-54]
8,0.7,COc1cncc(-c2cn(-c3cc(NC(=O)c4cc(OC(F)(F)F)cc(N5CCN(C)CC5)c4)cnc3C)nn2)c1 [XII-16]
9,2.9,Cc1ncc(NC(=O)c2cc(C(F)(F)F)ccn2)cc1-n1cc(-c2cncc(N3CCN(C(C)(C)C)CC3)c2)nn1 [XII-32]
10,1.5,Cc1ncc(NC(=O)c2cc(NCCN(C)C)cc(OC(F)(F)F)c2)cc1-n1cc(-c2cnn(C)c2C)nn1 [XII-21]
11,0.9,Cc1ncc(NC(=O)c2cc(C(F)(F)F)ccn2)cc1-n1cc(-c2cncc(N3CCN(C)CC3)c2)nn1 [XII-57]
12,6.5,CC(=O)Nc1ncc(-c2cn(-c3cc(NC(=O)c4cc(OC(F)(F)F)cc(N5CCN(C)CC5)c4)cnc3C)nn2)s1 [XII-19]
13,4.6,Cc1ncc(NC(=O)c2cc(C(F)(F)F)ccn2)cc1-n1cc(-c2cnn(C)c2C)nn1 [XII-2]
14,1.9,CCOCCN1CCN(c2cncc(-c3cn(-c4cc(NC(=O)c5ccc(OC)c(C(F)(F)F)c5)cnc4C)nn3)c2)CC1 [XII-44]
15,0.8,Cc1ncc(NC(=O)c2cccc(C(C)(C)C#N)c2)cc1-n1cc(-c2cncc(N3CCN(C)CC3)c2)nn1 [XII-34]
16,1.9,COCCCN1CCN(c2cncc(-c3cn(-c4cc(NC(=O)c5cc(C(F)(F)F)ccn5)cnc4C)nn3)c2)CC1 [XII-31]
17,2.3,CCN1CCN(c2cncc(-c3cn(-c4cc(NC(=O)c5cccc(C(C)(C)C#N)c5)cnc4C)nn3)c2)CC1 [XII-51]

# Same assay, conditions: measurement at 1.02 μM (**); 100% = no inhibition, 0% = total inhibition; read-out: % CTL (residual activity of the enzyme relative to DMSO control)
row,remaining activity at 1.02 µM [%],Compound
1,15.6,Cc1ncc(C(=O)Nc2cc(C(F)(F)F)cc(N3CCCCC3)c2C)cc1-n1cc(-c2cnn(C)c2C)nn1 [Example I-114]

# Same assay, conditions: measurement at 1.43 μM (***); 100% = no inhibition, 0% = total inhibition; read-out: % CTL (residual activity of the enzyme relative to DMSO control)
row,remaining activity at 1.43 µM [%],Compound
1,2,COc1c(CNCC(C)C)cc(C(F)(F)F)cc1NC(=O)c1cnc(C)c(-n2cc(-c3cnn(C)c3C)nn2)c1 [Example I-105]
